Laboratory results as given in the CheMixHub ionic liquid set.

Assay: xn = mol fraction of the nth substance listed

CCCCC[n+]1ccn(C)c1.C[C@H](N)C(=O)[O-] + O
viscosity [mPa·s], 100.3 kPa
Settings | 288.15 K | 293.15 K | 298.15 K | 303.15 K | 308.15 K | 313.15 K | 318.15 K | 323.15 K | 328.15 K
x1 = 0.0003008 | 1.156 | 1.015 | 0.9 | 0.81 | 0.725 | 0.661 | 0.604 | 0.554 | 0.511
x1 = 0.0003999 | 1.162 | 1.022 | 0.907 | 0.813 | 0.732 | 0.664 | 0.606 | 0.556 | 0.513
x1 = 0.0005025 | 1.167 | 1.027 | 0.911 | 0.817 | 0.735 | 0.666 | 0.608 | 0.559 | 0.515
x1 = 0.001012 | 1.203 | 1.057 | 0.937 | 0.838 | 0.755 | 0.684 | 0.626 | 0.573 | 0.529
x1 = 0.00302 | 1.361 | 1.197 | 1.057 | 0.939 | 0.841 | 0.759 | 0.688 | 0.629 | –
x1 = 0.005081 | 1.512 | 1.325 | 1.163 | 1.027 | 0.916 | 0.827 | 0.749 | 0.685 | –
x1 = 0.006922 | 1.657 | 1.445 | 1.272 | 1.118 | 0.997 | 0.893 | 0.805 | 0.736 | –
x1 = 0.009062 | 1.82 | 1.574 | 1.367 | 1.208 | 1.07 | 0.958 | 0.867 | 0.781 | –
x1 = 0.01107 | 1.956 | 1.696 | 1.476 | 1.3 | 1.146 | 1.026 | 0.928 | 0.831 | –
x1 = 0.01292 | 2.098 | 1.817 | 1.578 | 1.378 | 1.223 | 1.087 | 0.985 | 0.887 | –
x1 = 0.0148 | 2.243 | 1.938 | 1.674 | 1.467 | 1.291 | 1.155 | 1.035 | 0.931 | –
x1 = 0.01797 | 2.456 | 2.105 | 1.823 | 1.596 | 1.392 | 1.252 | 1.114 | 0.999 | –

CCCC[P+](CC)(CC)CC.N#Cc1ccc[n-]1 + OCCN(CCO)CCO
100 kPa
Settings | electrical conductivity [S/m] | viscosity [mPa·s]
293.15 K, x1 = 0.005 | 0.0013 | –
293.15 K, x1 = 0.012 | 0.0027 | –
293.15 K, x1 = 0.029 | 0.0046 | 980
293.15 K, x1 = 0.035 | 0.005 | –
293.15 K, x1 = 0.223 | – | 810
293.15 K, x1 = 0.459 | 0.0205 | –
298.15 K, x1 = 0.018 | – | 629
303.15 K, x1 = 0.223 | – | 341
303.15 K, x1 = 0.508 | – | 278
